As a reminder, the inhibition is the share of the control response that was lost under treatment. A low value points to a response near the control.

This is an account of results in PMC2376372, “3-Bromophenyl 6-acetoxymethyl-2-oxo-2H-1-benzopyran-3-carboxylate inhibits cancer cell invasion in vitro and tumour growth in vivo” (British Journal of Cancer, 2003).

In assay [1] the test system is HT1080 fibrosarcoma cells. The experiment in a line: Chemotaxis assay, uncoated Transwell inserts. It is filed as cell-based, human. Particulars: Homo sapiens, HT-1080, 4 h, uncoated filters. The protocol:
HT1080 cells exponentially growing in T-75 flasks (Nunc, Costar, Netherlands) were collected by trypsin–ethylenediaminetetraacetic acid treatment, washed with serum-containing medium and allowed to recover from trypsinisation for at least 30 min at 37°C. Cells were then washed twice in serum-free DMEM and diluted in the same medium supplemented with 0.1% bovine serum albumin (BSA, fraction V, Sigma, USA) to a cell density of 6 × 10^5 cells ml^−1.
The influence of coumarin derivatives (0.1, 1 and 10 μM) on HT1080 cell invasion and migration was assayed using Transwell cell culture inserts (Costar) and compared to the reference compound GI 129471 (1 μM), an MMP inhibitor ([Wheeler et al, 1998]).
For chemoinvasion assays, type IV collagen-coated membranes (see above) were used, whereas uncoated membranes were employed for chemotaxis assays. Lower wells of chambers were filled with DMEM supplemented with 20% FCS and 1% BSA (fraction V, ICN) as chemoattractant, in the presence or absence of coumarin derivative (final concentration 0.1, 1 and 10 μM) or GI 129471 (final concentration 1 μM). Cells (6 × 10^4) suspended in DMEM supplemented with 0.1% BSA (fraction V, ICN) were seeded in the upper wells. Chambers were subsequently incubated for 48 and 4 h for chemoinvasion and chemotaxis assays, respectively, in a humid atmosphere at 37°C (in order to maintain a chemotactic gradient, media from both lower and upper wells were renewed after 24 h). After incubation, filters were removed from the chambers, fixed in 4% paraformaldehyde for 15 min (4°C), permeabilised for 10 min in methanol (−20°C) and stained with Giemsa (4%) for 15 min. The upper surface of the filters was scrapped with a cotton swab and cells having reached the lower surface of the filters were visually counted using a light microscope (Vanox AH3, Olympus, Hamburg, Germany) at 20-fold magnification. Each assay was performed in triplicate. Results were expressed as percentages (±s.d.) of the migration of control cells.

Assay [2] addresses T1, MMP-9 (Homo sapiens, UniProt P14780).
T1 construct: purchased Calbiochem
The experiment in a line: Inhibition of purified MMP-9. Particulars: purified enzyme, pH 7.5, 25°C. It is filed as biochemical. The method, then:
Bovine α-CT and LMW-uPA (MW=33 000 Da) were purchased from Sigma, HMW-uPA (MW=54 000 Da) from Choay, trypsin (TRY) and THR from Boehringer-Indelheim (Germany), and MMP-2 and MMP-9 from Calbiochem. Human leucocyte elastase and PM were from Elastase Products Co. and Biogenic, respectively. Except for THR, HMW-uPA, MMP-2 and MMP-9, enzyme concentrations were determined by active-site titrations using the appropriate titrant ([Bender et al, 1966]; [Chase and Shaw, 1970]; [Powers and Gupton, 1977]). Several enzymes were assayed spectrophotometrically at 405 nm using the following p-nitroanilide substrates: succininyl-Ala2-Pro-Phe-p-nitroanilide (Suc-AAPF-p-NA), benzoyl-Arg-p-nitroanilide (Bz-R-p-NA) and methoxysuccinyl-Ala2-Pro-Val-p-nitroanilide (MeO-Suc-AAPV-p-NA) for α-CT, TRY and HLE, respectively (obtained from Sigma); or S-2238 ([…]), S-2444 (<Glu-Gly-Arg-p-nitroanilide) and S-2251 (H-D-Val-Leu-Lys-p-nitroanilide) for THR, HMW- and LMW-uPA, and PM, respectively (from Biogenic). Matrix metalloprotease-2 previously activated by treatment with APMA were assayed at 412 nm with the thiopeptide Ac-Pro-Leu-Gly-^Sleu-Leu-Gly-Oet in the presence of 5,5′-dithiobis(2-nitrobenzenic) acid (DTNB). […]

The subject of assay [3] is HT1080 cells. The experiment in a line: Tumorigenicity of HT1080 cells injected s.c. with matrigel in nude mice. Particulars: 30 mg kg^−1 i.p. three times per week; for effect on tumour growth (tumour volume), HT1080: ANOVA; for time after cell inoculation to reach a tumour incidence of 50%: tumours higher than 80 mm^3. It is filed as in vivo. The protocol:
Matrigel (basement membrane proteins) was extracted from the mouse Engelbreth–Holm–Swarm (EHS) tumour as previously described ([Noël et al, 1991]). Tumoral cells were detached by trypsinisation, harvested by centrifugation, resuspended in 0.25 ml of serum-free medium and mixed with an equal volume of cold matrigel (10 mg ml^−1). The suspension (1 × 10^6 cells injection site^−1) was injected subcutaneously (s.c.) on both body flanks of 6–8-week-old female athymic nude mice (n=6; nu/nu Swiss mice from Iffa credo, L'Arbresle, France). The coumarin derivatives in PBS were injected intraperitoneally (30 mg kg^−1) three times per week during the whole assay.
The tumorigenicity defines the capacity of cells to induce tumour formation. The larger (a) and smaller (b) diameters of the apparent tumour were measured and served for tumour volume calculation according to a × b^2 × 0.4 ([Attia and Weiss, 1966]). Injected mice were examined weekly. Tumours presenting a volume higher than 80 mm^3 and which maintained a progressive growth were taken into account ([Noël et al, 1992]). Results are expressed as the mean (±s.e.m.) of the tumour volumes.

T1 sequence (P14780 94-707, species assumed): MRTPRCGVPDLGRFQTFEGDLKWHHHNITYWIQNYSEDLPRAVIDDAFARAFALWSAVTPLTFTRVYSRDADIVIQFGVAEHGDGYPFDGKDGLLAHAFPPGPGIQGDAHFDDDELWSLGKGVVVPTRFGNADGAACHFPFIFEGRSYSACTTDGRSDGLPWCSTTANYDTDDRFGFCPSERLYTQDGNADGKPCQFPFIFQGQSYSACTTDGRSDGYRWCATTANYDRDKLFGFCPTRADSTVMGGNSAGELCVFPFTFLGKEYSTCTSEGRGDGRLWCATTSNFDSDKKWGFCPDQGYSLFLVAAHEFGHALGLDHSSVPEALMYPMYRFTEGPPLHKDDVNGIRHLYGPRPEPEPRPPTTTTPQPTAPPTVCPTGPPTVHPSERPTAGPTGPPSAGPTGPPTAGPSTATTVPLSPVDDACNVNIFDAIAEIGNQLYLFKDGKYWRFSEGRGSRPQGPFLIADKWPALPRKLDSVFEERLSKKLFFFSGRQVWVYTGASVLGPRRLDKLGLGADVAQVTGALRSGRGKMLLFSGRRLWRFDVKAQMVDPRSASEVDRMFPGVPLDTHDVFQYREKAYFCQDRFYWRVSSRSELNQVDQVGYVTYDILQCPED

The molecule `CC(=O)OCc1ccc2oc(=O)c(C(=O)Oc3cccc(Cl)c3)cc2c1` [compound 4, 3-chlorophenyl 6-acetoxymethyl-2-oxo-2H-1-benzopyran-3-carboxylate] came in with an inhibition at 0.1 µM in assay [1] (0.1 μM) of 20%. The molecule further came in with an inhibition at 1 µM in assay [1] of 50%. This molecule also registered an inhibition at 10 µM in assay [1] (10 μM) of 80%. Also, in assay [2], the “inhibition of MMP-9” value was “not affected”. In assay [3], the “effect on tumour growth (tumour volume), HT1080” value was “did not significantly affect tumour growth” and the “time after cell inoculation to reach a tumour incidence of 50%” value came out at 26 days.
With `CC(=O)OCc1ccc2oc(=O)c(C(=O)Oc3cccc(Br)c3)cc2c1` [compound 7, 3-bromophenyl 6-acetoxy-methyl-2-oxo-2H-1-benzopyran-3-carboxylate], the inhibition at 1 µM in assay [1] was around 30%. For the same molecule, the “inhibition of MMP-9” value in assay [2] is given as “not affected”. In addition, in assay [3], the “effect on tumour growth (tumour volume), HT1080” value is “significantly reduced the tumour growth” and the “time after cell inoculation to reach a tumour incidence of 50%” value came out at 48 days. The “effect on tumour incidence, HT1080” value in assay [3] (log Rank test, P<0.004) is given as “reduce both the incidence”.
